Results published in ChEMBL document CHEMBL4680140, “Minor chemical modifications of the aminosteroid derivative RM-581 lead to major impact on its anticancer activity, metabolic stability and aqueous solubility” (Eur J Med Chem, 2020).
Converted amounts (≈) assume the structure as drawn.

Legend:
Type in all cases: physicochemical
[1] = Solubility of compound in PBS at pH 7.4 at 300 uM after 24 hrs by HPLC-UV analysis
[2] = Solubility of compound in PBS at pH 7.4 by shake flask method
[3] = Solubility of compound in PBS at pH 7.4

Compound | solubility at 24 h, 300 µM [1] | solubility thermodynamic [2] | solubility [3]
COc1ccc(Cl)cc1C(=O)NCCc1ccc(S(=O)(=O)NC(=O)NC2CCCCC2)cc1 [GLYBURIDE] | 6.7 µg/mL (≈ 13.6 µM) | 5.6 µg/mL (≈ 11.3 µM) | –
CC(C)C(=O)Nc1ccc([N+](=O)[O-])c(C(F)(F)F)c1 [FLUTAMIDE] | 19.9 µg/mL (≈ 72 µM) | – | 19.9 µg/mL (≈ 72 µM)
